From ChEMBL document CHEMBL1155583, “Steroidal saponins from Dracaena surculosa” (J Nat Prod, 2000) come the findings set out here.

≈ marks a conversion by molar mass, not a printed value.

The test has as its system HL-60. Briefly: Cytotoxicity against human HL60 cells by MTT assay. It counts as functional, cell-based. (In general: Tetrazolium dyes change colour on reduction, which living cells bring about.)
As usually defined, the IC50 is the concentration that gives 50% inhibition. Low values mean greater potency, high ones weaker potency. Molecule `C[C@@H]1CC[C@@]2(OC1)O[C@H]1C[C@H]3[C@@H]4CC=C5C[C@@H](O[C@@H]6O[C@H](CO)[C@@H](O)[C@H](O)[C@H]6O[C@@H]6O[C@@H](C)[C@H](O)[C@@H](O)[C@H]6O)CC[C@]5(C)[C@H]4CC[C@]3(C)[C@@]1(O)[C@@H]2C` showed an IC50 of 5.2 µg/mL (≈ 7.04 µM). Consider `C[C@H]1CC[C@@]2(OC1)O[C@H]1C[C@H]3[C@@H]4CC=C5C[C@@H](O)C[C@@H](O[C@@H]6O[C@H](C)[C@H](O)[C@H](O)[C@H]6O[C@@H]6O[C@@H](C)[C@H](O)[C@@H](O)[C@H]6O)[C@]5(C)[C@H]4CC[C@]3(C)[C@H]1[C@@H]2C`, for which the IC50 is 8.7 µg/mL (≈ 12 µM). The molecule `C[C@@H]1CC[C@@]2(OC1)O[C@H]1C[C@H]3[C@@H]4CC=C5C[C@@H](O[C@@H]6O[C@H](CO)[C@@H](O[C@@H]7O[C@@H](C)[C@H](O)[C@@H](O)[C@H]7O)[C@H](O)[C@H]6O[C@@H]6O[C@@H](C)[C@H](O)[C@@H](O)[C@H]6O)CC[C@]5(C)[C@H]4CC[C@]3(C)[C@@]1(O)[C@@H]2C` displayed an IC50 of 4.2 µg/mL (≈ 4.75 µM).
